Measurements reported in PubChem BioAssay AID2745 (NMMLSC, 2010).
Values joined by “and” are separate entries in the source; they are usually repeats but may differ in a detail not shown here. Equal entries are not always repeated. Active and inactive are the calls of the source. No rule for the calls is given here.

test system: not listed separately; test: LAP4-GFP modulation potency in yeast, dose response, cell-based, MLPCN hits, flow cytometry (AID 2745);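 also: yeast exposed to compound for three hours at 30 degrees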; conditions: S. cerevisiae LAP4-GFP reporter, flow cytometry fluorescence; at 33 µM (top of the series)

| SMILES | LAP4-GFP fluorescence (kMESF) |
| --- | --- |
| CN(Cc1cnc2nc(N)nc(N)c2n1)c1ccc(C(=O)N[C@@H](CCC(=O)O)C(=O)O)cc1 | 10.8 kMESF (inactive) |

test system: S. cerevisiae LAP4-GFP reporter, flow cytometry fluorescence; test: as above; conditions: not given

| SMILES | EC50 |
| --- | --- |
| CN(Cc1cnc2nc(N)nc(N)c2n1)c1ccc(C(=O)N[C@@H](CCC(=O)O)C(=O)O)cc1 | 5.18 µM |
| C/C(=N\NC(=O)c1cc2ccccc2cc1O)c1ccccn1 | 3.98 µM |
| Cc1ccc(/C=C2/SC(=S)N(C3CCCCC3)C2=O)o1 | 13.3 µM |
| CCOC(=O)CSC1=NC(=O)/C(=C\c2ccc(Cl)cc2)S1 | 27 µM |
| ClC(Cl)(c1nnnn1-c1ccccc1)c1nnnn1-c1ccccc1 | 3.8 µM |
| CCc1sc(C(=O)Nc2nc(-c3ccccn3)cs2)cc1C | 3.94 µM |
| O=C1NC(=O)N(Cc2ccco2)C(=O)/C1=C/c1ccc(-c2cccc([N+](=O)[O-])c2)o1 | 6.36 µM |
| Cc1c(C(=O)Nc2nc(-c3ccccn3)cs2)oc2ccccc12 | 4.01 µM |
| COc1ccc(C(=O)/C=C2/C(=O)Nc3ccccc32)cc1 | 3.38 µM |
| COc1cc(N2C(=O)C=CC2=O)c(OC)cc1Cl | 1.44 µM |
| O=C(/C=C/c1ccccn1)c1cc(Br)ccc1O | 4.09 µM |
| Cc1ccc(/C=N/Nc2ncc(Cl)cc2Cl)s1 | 31.7 µM |
| Cc1cc(S(=O)(=O)ON2C(=O)c3ccccc3C2=O)ccc1F | 4.21 µM |
| O=[N+]([O-])c1ccc(S(=O)(=O)c2cccc(C(F)(F)F)c2)nc1 | 21.5 µM |
| COc1cc(SSc2cc(OC)cc([N+](=O)[O-])c2N)c(N)c([N+](=O)[O-])c1 | 8.26 µM |
| Cc1ccc(S(=O)(=O)c2ccc([N+](=O)[O-])cn2)cc1 | 14.9 µM |
| O=[N+]([O-])c1ccc(O)c2ncccc12 | 0.607 µM and 0.752 µM |
| COc1cccc(/C=N/Nc2ncc(C(F)(F)F)cc2Cl)c1O | 6.3 µM |
| O=c1[nH]c(-c2ccccn2)nc(C(F)(F)F)c1Br | 2.55 µM |
| COc1ccc(N2CCN(C(=O)c3ccc(Br)cc3)CC2)c([N+](=O)[O-])c1 | 11.4 µM |
| O=C(O)/C=C/C(=O)c1ccc2c(c1)CCc1ccccc1-2 | 1.2 µM |
| O=C(c1ccccc1)c1ccccc1N1C(=O)C=CC1=O | 2 µM |
| CCCOc1ccc(C(=O)NNC(=S)NC(=O)c2ccco2)cc1 | 13.3 µM |
| COc1cccc(C(=O)Nc2nnc(-c3ccc(Cl)cc3)o2)c1 | 3.84 µM |
| COc1ccc(/C=C/C(=O)C2C(=O)C=C(C)OC2=O)cc1O (stereo not drawn) | 11.7 µM |
| Cc1ccc(NN2C(=O)C=C(c3ccc(Cl)cc3)C2=O)cc1 | 0.691 µM |

| SMILES | EC50 |
| --- | --- |
| O=C(OCn1ncc(Br)c(Br)c1=O)c1ccc(F)cc1 | 19.1 µM |
| Cn1ncc(S(=O)(=O)Cc2ccccc2)c(Cl)c1=O | 4.01 µM |
| CC1=CC(=O)C(C(C)C)=C/C1=N/OS(=O)(=O)c1ccccc1 | 9.59 µM |
| CC(Oc1cccc(Cl)c1)C(=O)Nc1nc(-c2ccccn2)cs1 (stereo not drawn) | 25.1 µM |
| N/C(Cc1ccc(Cl)cc1)=N\OC(=O)c1ccccc1 | 4.4 µM |
| Cc1ccc(S(=O)(=O)ON2C(=O)c3ccccc3C2=O)c(C)c1 | 3.89 µM |
| O=C(Nc1nc(-c2ccccn2)cs1)c1cc2ccccc2o1 | 4.09 µM |
| CCN1/C(=C/C(C)=C/c2sc3ccccc3[n+]2CC)Sc2ccccc21 | 4.21 µM |
| CC(C)(C)C(=O)NC(=S)NNC(=O)c1ccc(-c2ccccc2)cc1 | 7.51 µM |
| O=C(C#Cc1ccccc1)c1cccc([N+](=O)[O-])c1 | 7.75 µM |
| Clc1ccc(N=c2ssnc2Cl)cc1 | 19.3 µM |
| O=C(Nc1ccc(Cl)cc1Cl)c1cccc(N2C(=O)C=CC2=O)c1 | 3.92 µM |
| O=C1ON=C(c2ccccc2)/C1=C/c1ccc(-c2ccccc2[N+](=O)[O-])o1 | 5 µM |
| CCOC(=O)c1ccc(N=Cc2nc(-c3ccccc3)oc2OC(C)=O)cc1 | 25.9 µM |
| Cc1cccnc1Nc1nc(-c2ccccn2)cs1 | 3.7 µM |
| O=C(C#Cc1ccccc1)c1ccco1 | 5.17 µM |
| O=C1NC(=O)N(Cc2ccc(F)cc2)C(=O)/C1=C/c1cccs1 | 3.41 µM |
| Cc1ccc(/C=C2/C(=O)ON=C2c2ccccc2)o1 | 3.48 µM |
| Oc1c(I)cc(I)c2cccnc12 | 0.7 µM |
| Cc1ccc(O)c(N=Nc2nccs2)c1 | 4.52 µM |
| Cc1ccc(/C=C/C(=O)c2ccccc(=O)c2O)c(C)c1 | 4.15 µM |
| O=C1ON=C(c2ccccc2)/C1=C/c1ccco1 | 4.26 µM |
| CC(=O)SC(C[N+](=O)[O-])c1cn(C(C)=O)c2ccccc12 (stereo not drawn) | 10.7 µM |
| O=C(Oc1c(Cl)cc(Cl)c2cccnc12)c1cccc([N+](=O)[O-])c1 | 2.02 µM |
| Cn1c(=O)c(C(=O)NNC(=O)c2ccc(Br)cc2)c(O)c2ccccc21 | 0.762 µM |
| Cc1ccsc1/C=C1\C(=O)NC(=S)N(C)C1=O | 0.327 µM |
